Test results reported in patent publication US12091425B2 (AMGEN INC., priority 2016, dated 2024).

Assays:
[1] = test system: OPM-2 human multiple myeloma cell line; assay: Cell Viability Assay (OPM-2 10 FBS); type: cell-based; conditions: OPM-2 cells, CellTiter-Glo
Outline: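 ATP-based luminescence (CellTiter-Glo) measured after a 16 h compound treatment of OPM-2 cells seeded at 3000 cells/well in 10% FBS medium. IC50 values derived by 4-parameter logistic fitting of serial dilutions.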

[2] = target: T1, Mcl-1/Bim interaction, recombinant human Mcl-1 (171-327) (Homo sapiens, UniProt Q07820); assay: Cell free Mcl-1: Bim Affinity Assay (Mcl-1 HTRF); type: binding
T1 construct: made in house
Outline: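 Displacement of biotinylated Bim 51-76 peptide is followed by TR-FRET. Incubation runs overnight. Duplicate points are fitted with a four-parameter sigmoid to yield IC50.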

[3] = Homo sapiens, OPM-2, 16 h, 16 h
[4] = cell free Mcl-1:Bim TR-FRET, recombinant human Mcl-1 (171-327)
[5] = TR-FRET, 0.1 nM Mcl-1 (171-327), 0.05 nM biotin-Bim (51-76)
[6] = Homo sapiens, OPM-2, 16 h, 16 h incubation

T1 sequence (Q07820 171-327): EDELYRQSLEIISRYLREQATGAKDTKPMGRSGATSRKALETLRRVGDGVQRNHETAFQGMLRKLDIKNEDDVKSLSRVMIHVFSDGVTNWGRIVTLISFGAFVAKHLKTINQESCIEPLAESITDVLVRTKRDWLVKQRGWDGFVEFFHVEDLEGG

Compound | IC50 [1, 3] [nM] | IC50 ([1]; 16 h) [nM] | IC50 [2, 5] [nM] | other results
C[C@@H]1[C@@H](C)C/C=C/[C@H](OCCN2C[C@@H]3C[C@H]2CO3)[C@@H]2CC[C@H]2CN2C[C@@]3(CCCc4cc(Cl)ccc43)COc3ccc(cc32)C(=O)NS1(=O)=O [Example 520, (1S,3′R,6′R,7′S,8′E,11′S,12′R)-6-chloro-11,12′-dimethyl-7′-(2-((1S,4S)-2-oxa-5-azabicyclo[2.2.1]hept-5-yl)ethoxy)-3,4-dihydro-2H,15′H-spiro[naphthalene-1,22′-[20]oxa[13]thia[1,14]diazatetracyclo[14.7.2.0^3,6.0^19,24]pentacosa [8,16,18,24]tetraen]-15′-one 13′,13′-dioxide 2,2,2-trifluoroacetic Acid] | 142 |  |  | IC50 [2, 4]: 0.279 nM
CCOC[C@H]1[C@@H](C)C/C=C/[C@H](O)[C@@H]2CC[C@H]2CN2C[C@@]3(CCCc4cc(Cl)ccc43)COc3ccc(cc32)C(=O)NS1(=O)=O (single isomer, unassigned) [Example 467] |  | 1510 | 1.45 | 
O=C1NS(=O)(=O)[C@@H]2CCC[C@H]2C/C=C/[C@H](O)[C@@H]2CC[C@H]2CN2C[C@@]3(CCCc4cc(Cl)ccc43)COc3ccc1cc32 (single isomer, unassigned) [Example 326] |  | 20000 | 5.51 | 
C[C@@H]1[C@@H](C)C/C=C/[C@H](O[C@H]2CCOC2=O)[C@@H]2CC[C@H]2CN2C[C@@]3(CCCc4cc(Cl)ccc43)COc3ccc(cc32)C(=O)NS1(=O)=O (single isomer, unassigned) [Example 427] |  | 204 | 0.414 | 
CC[C@@H]1C[C@H](C)/C=C/[C@H](OCCN2CCOCC2)[C@@H]2CC[C@H]2CN2C[C@@]3(CCCc4cc(Cl)ccc43)COc3ccc(cc32)C(=O)NS1(=O)=O (single isomer, unassigned) [Example 1027] |  |  | 0.945 | IC50 ([1]; 16 h incubation): 218 nM
COCC[C@@H]1/C=C/[C@@H]2CC[C@H]2CN2C[C@@]3(CCCc4cc(Cl)ccc43)COc3ccc(cc32)C(=O)NS(=O)(=O)[C@H](C)[C@@H](C)C1 [Example 114, (1S,3′R,6′S,7′E,9′R,11′S,12′R)-6-chloro-9′-(2-methoxyethyl)-11′,12′-dimethyl-3,4-dihydro-2H,15′H-spiro[naphthalene-1,22′-[20]oxa[13]thia[1,14]diazatetracyclo[14.7.2.0^3,6.0^19,24]pentacosa[7,16,18,24]tetraen]-15′-one 13′,13′-dioxide] | 3400 |  | 3.6 | 
COC[C@@H](O)C[C@@H]1CC/C=C/[C@H](OC)[C@@H]2CC[C@H]2CN2C[C@@]3(CCCc4cc(Cl)ccc43)COc3ccc(cc32)C(=O)NS1(=O)=O (single isomer, unassigned) [Example 659] |  | 10900 |  | IC50 [2, 4]: 3.37 nM
C[C@@H]1[C@@H](C)C/C=C/[C@H](O[C@@H]2CCOC2=O)[C@@H]2CC[C@H]2CN2C[C@@]3(CCCc4cc(Cl)ccc43)COc3ccc(cc32)C(=O)NS1(=O)=O (single isomer, unassigned) [Example 428] | 176 |  | 0.333 | 
CC1CC=CC(OCC(C)N2CCOCC2)C2CCC2CN2CC3(CCCc4cc(Cl)ccc43)COc3ccc(cc32)C(=O)NS(=O)(=O)C1CC1CC1 (stereo not drawn) [Example 387] | 1250 |  | 1.65 | 
CNC(=O)C[C@@H]1/C=C/[C@@H]2CC[C@H]2CN2C[C@@]3(CCCc4cc(Cl)ccc43)COc3ccc(cc32)C(=O)NS(=O)(=O)[C@H](C)[C@@H](C)C1 [Example 1073, 2-((1S,3′R,6′S,7′E,9′R,11′S,12′R)-6-chloro-11′,12′-dimethyl-13′,13′-dioxido-15′-oxo-3,4-dihydro-2H-spiro[naphthalene-1,22′-[20]oxa[13]thia[1,14]diazatetracyclo[14.7.2.0^3,6.0^19,24]pentacosa [7,16,18,24]tetraen]-9′-yl)-N-methylacetamide] |  |  | 0.617 | IC50 [1, 6]: 1120 nM
C[C@@H]1[C@@H](C)S(=O)(=O)NC(=O)c2ccc3c(c2)N(C[C@@H]2CC[C@H]2[C@H](O)/C=C/[C@@H]1C)C[C@@]1(CCCc2cc(Cl)ccc21)CO3 (single isomer, unassigned) [Example 1068] |  |  | 0.442 | IC50 ([1]; 16 h incubation): 1960 nM
CN(C)S(=O)(=O)N1CCN(C(=O)CC[C@@H]2CC/C=C/[C@H](O)[C@@H]3CC[C@H]3CN3C[C@@]4(CCCc5cc(Cl)ccc54)COc4ccc(cc43)C(=O)NS2(=O)=O)CC1 (single isomer, unassigned) [Example 626] |  | 2200 |  | IC50 [2, 4]: 0.305 nM
C[C@H]1[C@H](C)/C=C/[C@H](O)[C@@H]2CC[C@H]2CN2C[C@@]3(CCCc4cc(Cl)ccc43)COc3ccc(cc32)C(=O)NS(=O)(=O)[C@@H]1C (single isomer, unassigned) [Example 1042] |  |  | 0.78 | IC50 [1, 6]: 393 nM
C[C@@H]1[C@@H](C)C/C=C/[C@H](OCC(=O)O)[C@@H]2CC[C@H]2CN2C[C@@]3(CCCc4cc(Cl)ccc43)COc3cc(CC(=O)O)c(cc32)C(=O)NS1(=O)=O [Example 293, ((1S,3′R,6′R,7′S,8′E,11′S,12′R)-7′-(carboxymethoxy)-6-chloro-11′,12′-dimethyl-13′,13′-dioxido-15′-oxo-3,4-dihydro-2H-spiro[naphthalene-1,22′-[20]oxa[13]thia[1,14]diazatetracyclo[14.7.2.0^3,6.0^19,24]pentacosa [8,16,18,24]tetraen]-17′-yl)acetic acid] | 27600 |  | 0.36 | 
CC1C=CC(O)C2CCC2CN2CC3(CCCc4cc(Cl)ccc43)COc3ccc(cc32)C(=O)NS(=O)(=O)CC1C (single isomer, unassigned) [Example 1061] |  |  | 0.711 | IC50 [1, 6]: 1110 nM
C[C@@H]1[C@@H](C)C/C=C/[C@H](OCCN2CCCCC2)[C@@H]2CC[C@H]2CN2C[C@@]3(CCCc4cc(Cl)ccc43)COc3ccc(cc32)C(=O)NS1(=O)=O [Example 723, (1S,3′R,6′R,7′S,8′E,11′5,12′R)-6-chloro-11′,12′-dimethyl-7′-(2-(1-piperidinyl)ethoxy)-3,4-dihydro-2H,15′H-spiro[naphthalene-1,22′-[20]oxa[13]thia[1,14]diazatetracyclo[14.7.2.0^3,6.0^19,24]pentacosa [8,16,18,24]tetraen]-15′-one-13′, 13′-dioxide] | 138 |  |  | IC50 [2, 4]: 0.485 nM
COC1C=CCCC(C(=O)N(C)C)S(=O)(=O)NC(=O)c2ccc3c(c2)N(CC2CCC21)CC1(CCCc2cc(Cl)ccc21)CO3 (single isomer, unassigned) [Example 453] |  | 21000 | 6.73 | 
C[C@H]1C/C=C/[C@H](O)[C@@H]2CC[C@H]2CN2C[C@@]3(CCCc4cc(Cl)ccc43)COc3ccc(cc32)C(=O)NS(=O)(=O)N1CCN(C)C [Example 76, (1S,3′R,6′R,7′S,8′E,11′S)-6-chloro-12′-(2-(dimethylamino)ethyl)-7′-hydroxy-11′-methyl-3,4-dihydro-2H,15′H-spiro[naphthalene-1,22′-[20]oxa[13]thia[1,12,14]triazatetracyclo[14.7.2.0^3,6.0^19,24]pentacosa[8,16,18,24]tetraen]-15′-one 13′,13′-dioxide] | 146 |  | 0.405 | 
COCC(C)OC1C=CCCC(C)S(=O)(=O)NC(=O)c2ccc3c(c2)N(CC2CCC21)CC1(CCCc2cc(Cl)ccc21)CO3 (mixture of isomers) [Example 955] |  |  | 1.23 | IC50 ([1]; 16 h incubation): 567 nM
C[C@@H]1[C@@H](C)C/C=C/[C@H](OCCO)[C@@H]2CC[C@H]2CN2C[C@@]3(CCCc4cc(Cl)ccc43)COc3ccc(cc32)C(=O)NS1(=O)=O [Example 516, (1S,3′R,6′R,7′S,8′E,11′S,12′R)-6-chloro-7′-(2-hydroxyethoxy)-11′,12′-dimethyl-3,4-dihydro-2H,15′H-spiro[naphthalene-1,22′-[20]oxa[13]thia[1,14]diazatetracyclo[14.7.2.0^3,6.0^19,24]pentacosa[8,16,18,24]tetraen]-15′-one 13′,13′-dioxide] | 72.5 |  |  | IC50 [2, 4]: 0.27 nM
COCCO[C@H]1/C=C/[C@@H](C)C[C@@H](C)S(=O)(=O)NC(=O)c2ccc3c(c2)N(C[C@@H]2CC[C@H]21)C[C@@]1(CCCc2cc(Cl)ccc21)CO3 [Example 1020, (1S,3′R,6′R,7′S,8′E,10′S,12′R)-6-chloro-7′-(2-methoxyethoxy)-10′,12′-dimethyl-3,4-dihydro-2H,15′H-spiro[naphthalene-1,22′-[20]oxa[13]thia[1,14]diazatetracyclo[14.7.2.0^3,6.0^19,24]pentacosa [8,16,18,24]tetraen]-15′-one 13′,13′-dioxide] |  |  | 1.05 | IC50 [1, 6]: 759 nM
CO[C@H]1/C=C/CC[C@@H](CO)S(=O)(=O)NC(=O)c2ccc3c(c2)N(C[C@@H]2CC[C@H]21)C[C@@]1(CCCc2cc(Cl)ccc21)CO3 (single isomer, unassigned) [Example 446] |  | 419 | 0.493 | 
COC[C@H](O)C[C@@H]1CC/C=C/[C@H](OC)[C@@H]2CC[C@H]2CN2C[C@@]3(CCCc4cc(Cl)ccc43)COc3ccc(cc32)C(=O)NS1(=O)=O (single isomer, unassigned) [Example 652] |  | 4460 |  | IC50 [2, 4]: 2.4 nM
CO[C@H]1/C=C/C[C@@H]2C[C@H]2S(=O)(=O)NC(=O)c2ccc3c(c2)N(C[C@@H]2CC[C@H]21)C[C@@]1(CCCc2cc(Cl)ccc21)CO3 (single isomer, unassigned) [Example 803] |  | 804 |  | IC50 [2, 4]: 1.06 nM
